Source: ChEMBL document CHEMBL4513139, “CO-ADD screening of University of Strathclyde (UK) compounds”
Converted amounts (≈) assume the structure as drawn. “And” between values parts separate entries of the source, which are not always exact repeats. Identical values can stand only once.

Assays:
[1] = test system: Klebsiella pneumoniae; test: microbe, parasite or virus in culture; conditions: ATCC 700603, 18 h, ASSAY_TEST Inhibition of Bacterial Growth, detection method Absorption (OD600), MEDIA CAMHB, plate type 384well, NBS, CORNING #3640
Description: Antibacterial activity against Klebsiella pneumoniae MDR ATCC 70063 (CO-ADD:GN_003); MIC in CAMBH media using NBS plates, by OD(600)

[2] = test system: HEK293; test: cells; format: functional, Homo sapiens, ATCC CRL1573; conditions: ASSAY_TEST Inhibition of Cell Viability, detection method Resazurin, Fluorescence (ex560/em590), MEDIA DMEM with 10% FBS, plate type 384well, TC, CORNING #3712, time 18 hr
[3] = test system: Cryptococcus neoformans
Description: Antifungal activity against Cryptococcus neoformans H99 ATCC 208821 (CO-ADD:FG_002); MIC in YNB media using NBS plates, by Resazurin OD(600-570)

[4] = test system: Staphylococcus aureus; test: microbe, parasite or virus in culture; conditions: ATCC 43300, 18 h, ASSAY_TEST Inhibition of Bacterial Growth, detection method Absorption (OD600), MEDIA CAMHB, plate type 384well, NBS, CORNING #3640
Description: Antibacterial activity against Staphylococcus aureus MRSA ATCC 43300 (CO-ADD:GP_020); MIC in CAMBH media, using NBS plates, by OD(600)

[5] = test system: Pseudomonas aeruginosa; test: microbe, parasite or virus in culture; conditions: ATCC 27853, 18 h, ASSAY_TEST Inhibition of Bacterial Growth, detection method Absorption (OD600), MEDIA CAMHB, plate type 384well, NBS, CORNING #3640
Description: Antibacterial activity against Pseudomonas aeruginosa ATCC 27853 (CO-ADD:GN_042); MIC in CAMBH media using NBS plates, by OD(600)

[6] = test system: Acinetobacter baumannii; test: microbe, parasite or virus in culture; conditions: ATCC 19606, 18 h, ASSAY_TEST Inhibition of Bacterial Growth, detection method Absorption (OD600), MEDIA CAMHB, plate type 384well, NBS, CORNING #3640
Description: Antibacterial activity against Acinetobacter baumannii ATCC 19606 (CO-ADD:GN_034); MIC in CAMBH media using NBS plates, by OD600

[7] = test system: Escherichia coli; test: microbe, parasite or virus in culture; conditions: ATCC 25922, 18 h, ASSAY_TEST Inhibition of Bacterial Growth, detection method Absorption (OD600), MEDIA CAMHB, plate type 384well, NBS, CORNING #3640
Description: Antibacterial activity against Escherichia coli ATCC 25922 (CO-ADD:GN_001); MIC in CAMBH media using NBS plates, by OD(600)

[8] = test system: Candida albicans; test: microbe, parasite or virus in culture; conditions: ATCC 90028, ASSAY_TEST Inhibition of Fungal Growth, detection method Absorption (OD530), plate type 384well, NBS, CORNING #3640
Description: Antifungal activity against Candida albicans ATCC 90028 (CO-ADD:FG_001); MIC in YNB media using NBS plates, by OD630

[9] = Homo sapiens, ATCC CRL1573, HEK293, read-out: CC50

Row | Compound | MIC [1] | CC50 [2, 9] | MIC [3] | MIC [4] | MIC [5] | MIC [6] | MIC [7] | MIC [8] | CC50 [2]
1 | COc1ccc(/C=C/c2ccc(C(=O)Nc3cc(C(=O)Nc4nc(C(=O)NCCN5CCOCC5)c(C5CCCCC5)s4)n(C)c3)cn2)cc1.O=C(O)C(F)(F)F.O=C(O)C(F)(F)F | > 32 µM | 4.56 µg/mL | > 32 µM | > 32 µM | > 32 µM | > 32 µM | > 32 µM | > 32 µM | 
2 | COc1cccc(/C=C/c2ccc(C(=O)Nc3cc(C(=O)Nc4cc(C(=O)NCCN5CCOCC5)n(C(C)C)c4)n(C)c3)cc2)c1.O=C(O)C(F)(F)F | > 32 µg/mL | 4.31 µg/mL | > 32 µg/mL | > 32 µg/mL | > 32 µg/mL | > 32 µg/mL | > 32 µg/mL | > 32 µg/mL | 
3 | Cn1cc(NC(=O)c2cc(NC(=O)C(C)(C)C)cn2C)cc1C(=O)NCCC(=N)N.O=C(O)C(F)(F)F | > 32 µg/mL | 12.3 µg/mL | > 32 µg/mL | > 32 µg/mL | > 32 µg/mL | > 32 µg/mL | > 32 µg/mL | > 32 µg/mL | 
4 | CC(C)CCc1sc(NC(=O)c2cc(NC(=O)c3cc(NC(=N)N)cn3C)cn2C)nc1C(=O)NCCCN(C)C.O=C(O)C(F)(F)F.O=C(O)C(F)(F)F | > 32 µg/mL | 19.9 µg/mL | 4 µg/mL | 16 µg/mL | > 32 µg/mL | > 32 µg/mL | > 32 µg/mL | > 32 µg/mL | 
5 | COC1CCN(CCNC(=O)c2cc(NC(=O)c3cc(NC(=O)c4ccc(/C=C/c5cnc6ccccc6c5)cc4)cn3C)cn2C)CC1 | > 32 µg/mL | 2.89 µg/mL (≈ 4.38 µM) | 16 µg/mL | ≤ 0.25 µg/mL | > 32 µg/mL | > 32 µg/mL | > 32 µg/mL | 32 µg/mL | 
6 | CC(C)n1cc(NC(=O)c2cc(NC(=O)c3cc4ccccc4oc3=O)cn2C)cc1C(=O)Nc1cc(C(=O)NCCCN(C)C)n(C)c1.O=C(O)C(F)(F)F | > 32 µg/mL | > 32 µg/mL | 32 µg/mL | > 32 µg/mL | > 32 µg/mL | > 32 µg/mL | > 32 µg/mL | > 32 µg/mL | 
7 | Cn1cc(NC(=O)c2cc(NC(=O)c3ccc(/C=C/c4cnc5ccccc5c4)cc3)cn2C)cc1C(=O)NCCN1CCCC1=O.O=C(O)C(F)(F)F | > 32 µg/mL | 12.7 µg/mL | > 32 µg/mL | > 32 µg/mL | > 32 µg/mL | > 32 µg/mL | > 32 µg/mL | > 32 µg/mL | 
8 | Cn1cc(NC(=O)c2ccc(/C=C/c3cnc4ccccc4c3)cc2)cc1C(=O)Nc1nc(C(=O)NCCN2CCOCC2)c(C2CCCCC2)s1.O=C(O)C(F)(F)F.O=C(O)C(F)(F)F | > 32 µg/mL | > 32 µg/mL | > 32 µg/mL | > 32 µg/mL | > 32 µg/mL | > 32 µg/mL | > 32 µg/mL | > 32 µg/mL | 
9 | CN(C)CCCn1cnc(NC(=O)c2cc(NC(=O)c3cc(NC(=O)c4cc5ccccc5cn4)cn3C)cn2C)c1.O=C(O)C(F)(F)F | > 32 µg/mL | 7.3 µg/mL | 16 µg/mL | > 32 µg/mL | > 32 µg/mL | > 32 µg/mL | > 32 µg/mL | > 32 µg/mL | 
10 | COCCOC1CCN(CCNC(=O)c2cc(NC(=O)c3cc(NC(=O)c4ccc(/C=C/c5cnc6ccccc6c5)cc4)cn3C)cn2C)CC1 | > 32 µg/mL | 1.96 µg/mL (≈ 2.78 µM) | > 32 µg/mL | 0.5 µg/mL | > 32 µg/mL | > 32 µg/mL | > 32 µg/mL | > 32 µg/mL | 
11 | Cn1cc(NC(=O)c2cc(NC(=O)c3ccc(/C=C/c4ccc5ccccc5n4)cc3)cn2C)cc1C(=O)NCCN1CCOCC1.O=C(O)C(F)(F)F | > 32 µg/mL | 1.95 µg/mL | 4 µg/mL | 4 µg/mL | > 32 µg/mL | > 32 µg/mL | > 32 µg/mL | 4 µg/mL | 
12 | Cn1cc(NC(=O)c2cc(NC=O)cn2C)cc1C(=O)NCCC(=N)N.O=C(O)C(F)(F)F | > 32 µM | > 32 µg/mL | > 32 µM | > 32 µM | > 32 µM | > 32 µM | > 32 µM | > 32 µM | 
13 | CSc1ccc(/C=C/c2ccc3cc(C(=O)Nc4cc(C(=O)Nc5cc(C(=O)NCCN6CCOCC6)n(C)c5)n(C)c4)ccc3n2)cc1.O=C(O)C(F)(F)F | > 32 µg/mL | > 32 µg/mL | 8 µg/mL | > 32 µg/mL | > 32 µg/mL | > 32 µg/mL | > 32 µg/mL | 4 µg/mL | 
14 | Cn1cc(NC(=O)c2ccc(/C=C/c3ccncc3)cc2)cc1C(=O)Nc1cc(C(=O)NCCN2CCOCC2)n(CCCN2CCOCC2)c1.O=C(O)C(F)(F)F.O=C(O)C(F)(F)F | > 32 µg/mL | 4.65 µg/mL | > 32 µg/mL | 4 µg/mL | > 32 µg/mL | > 32 µg/mL | > 32 µg/mL | > 32 µg/mL | 
15 | CC(C)CCn1cc(NC(=O)c2cc(NC(=O)c3cc(NC(=N)N)cn3C)cn2C)cc1C(=O)NCCCN(C)C.O=C(O)C(F)(F)F.O=C(O)C(F)(F)F | > 32 µg/mL | > 32 µg/mL | 32 µg/mL | > 32 µg/mL | > 32 µg/mL | > 32 µg/mL | > 32 µg/mL | > 32 µg/mL | 
16 | COc1ccc(/C=C/c2ccc(C(=O)Nc3cc(C(=O)Nc4cc(C(=O)NCCN5CCC(OC)CC5)n(C)c4)n(C)c3)cc2)cc1.O=C(O)C(F)(F)F | > 32 µg/mL | 6.43 µg/mL | > 32 µg/mL | > 32 µg/mL | > 32 µg/mL | > 32 µg/mL | > 32 µg/mL | > 32 µg/mL | 
17 | Cn1cc(NC(=O)c2cc(NC(=O)c3ccc(/C=C/c4cc5ccccc5nc4On4nnc5ccccc54)cc3)cn2C)cc1C(=O)NCCN1CCOCC1.O=C(O)C(F)(F)F | > 32 µg/mL | > 32 µg/mL | > 32 µg/mL | > 32 µg/mL | > 32 µg/mL | > 32 µg/mL | > 32 µg/mL | > 32 µg/mL | 
18 | COC(=O)c1ccc(C(=O)Nc2cc(C(=O)Nc3cc(C(=O)Nc4nc(C(=O)NCCCN(C)C)c(CCC(C)C)s4)n(C)c3)n(C)c2)cc1.O=C(O)C(F)(F)F | > 32 µg/mL | 2.72 µg/mL | > 32 µg/mL | > 32 µg/mL | > 32 µg/mL | > 32 µg/mL | > 32 µg/mL | > 32 µg/mL | 
19 | CN(C)CCNC(=O)c1cc(NC(=O)c2cc(NC(=O)c3ccc(/C=C/c4ccc(N(C)C)cc4)nc3)cn2C)cn1C.O=C(O)C(F)(F)F | > 32 µg/mL | 2.17 µg/mL |  | 1 µg/mL | > 32 µg/mL | > 32 µg/mL | > 32 µg/mL | 1 µg/mL | 
20 | CN(C)CCCNC(=O)c1cc(NC(=O)c2cc(NC(=O)c3cc(NC(=N)c4cc5ccccc5cn4)cn3C)cn2C)cn1C.O=C(O)C(F)(F)F.O=C(O)C(F)(F)F | > 32 µg/mL | > 32 µg/mL | 8 µg/mL | > 32 µg/mL | > 32 µg/mL | > 32 µg/mL | > 32 µg/mL | 32 µg/mL | 
21 | Cn1cc(NC(=O)c2cc(NC(=O)c3ccc(/C=C/C4CC4)cc3)cn2C)cc1C(=O)NCCN1CCOCC1.O=C(O)C(F)(F)F | > 32 µg/mL |  | 32 µg/mL | > 32 µg/mL | > 32 µg/mL | > 32 µg/mL | > 32 µg/mL | > 32 µg/mL | 
22 | Cn1cc(NC(=O)c2ccc(/C=C/c3cnc4ccccc4c3)cc2)cc1C(=O)Nc1cc(C(=O)NCCN2CCOCC2)n(CCCc2ccccc2)c1.O=C(O)C(F)(F)F.O=C(O)C(F)(F)F | > 32 µg/mL |  | 4 µg/mL and 8 µg/mL | > 32 µg/mL | > 32 µg/mL | > 32 µg/mL | > 32 µg/mL | > 32 µg/mL | 
23 | Cn1cc(NC(=O)c2cc(NC(=O)c3ccc(/C=C/c4ccc5nonc5c4)cc3)cn2C)cc1C(=O)NCCN1CCOCC1.O=C(O)C(F)(F)F | > 32 µg/mL |  | > 32 µg/mL | > 32 µg/mL | > 32 µg/mL | > 32 µg/mL | > 32 µg/mL | > 32 µg/mL | 
24 | COc1cccc(/C=C/c2ccc(C(=O)Nc3cc(C(=O)Nc4cc(C(=O)NCCN5CCOCC5)n(C)c4)n(C)c3)cc2)c1.O=C(O)C(F)(F)F | > 32 µg/mL | 3.75 µg/mL |  | > 32 µg/mL | > 32 µg/mL | > 32 µg/mL | > 32 µg/mL | > 32 µg/mL | 3.46 µg/mL
25 | COc1ccc(C(=N)Nc2cc(C(=O)Nc3nc(C(=O)NCCN4CCOCC4)c(CCc4ccccc4)s3)n(C)c2)cc1.O=C(O)C(F)(F)F.O=C(O)C(F)(F)F | > 32 µg/mL | 8.88 µg/mL |  | 8 µg/mL | > 32 µg/mL | > 32 µg/mL | > 32 µg/mL | > 32 µg/mL | 
